Assay results taken from EP4606801A1, “FUSED HETEROCYCLIC COMPOUND AND USE THEREOF” (Chengdu Zenitar Biomedical Technology Co., Ltd., priority 2022, dated 2024).

How the values were obtained:
in vivo = settings: male, SD, rat, po
Procedure: Experimental procedure: The compound, a small amount of DMSO and a sodium chloride injection were added to prepare the final solution for administration. The compound was orally administered to 6 male SD rats. […] The supernatant was collected and transferred into a sample vial for assay. Range of standard curve: 10 - 10,000 ng·mL^-1.

PARP2 = target: T1, PARP2 (Homo sapiens, UniProt Q9UGN5); test: Determination of PARP2 enzyme (histone-coated plate, Biotin-NAD+); type: biochemical
T1 construct: purchased BPS 80502
Procedure: • 1.2.1 Preparation of buffer solution: PBST: 1x PBS, 0.05% Tween-20; blocking solution: 1x PBS, 0.05% Tween-20, 5% BSA; reaction buffer solution: 50 mM HEPES (pH 7.5), 0.002% Tween-20, 0.1% BSA, 100 mM NaCl, 2mM DTT. • 1.2.2 Coating: A 100 ng/mL Histone coating solution was prepared by using 1x PBS, 25 uL of the coating solution was transferred to a 384-well reaction plate, and the reaction plate was coated overnight at 4°C. • 1.2.3 Washing: After the coating was completed, the coating solution was discarded, and the reaction plate was washed with the PBST solution by means of transferring 50uL of the PBST solution to the 384-well reaction plate, letting it stand for 5 min, discarding the washing solution, refilling the reaction plate, and repeating the washing process 3 times. Finally, the reaction plate was tapped dry and the next step of blocking was proceeded with. • 1.2.4 Blocking: 50 uL of the blocking solution was transferred to the 384-well reaction plate and set for 1 h. • 1.2.5 Washing: After the blocking was completed, the blocking solution was discarded, the reaction plate was washed 3 times with the PBST solution according to the method in Step 2, and the reaction plate was tapped dry. • 1.2.6 A 25/10× PARP2 solution was prepared, then 10 µL of the PARP2 solution was transferred to the 384-well reaction plate.

PARP5A = target: T2, PARP5A (Homo sapiens, UniProt O95271); test: Determination of PARP5A enzyme (histone-coated plate, Biotin-NAD+); type: biochemical
T2 construct: purchased BPS 80504
Procedure: • 1.3.1 Preparation of buffer solution solution: PBST: 1x PBS, 0.05% Tween-20; blocking solution: 1x PBS, 0.05% Tween-20, 5% BSA; reaction buffer solution: 50 mM HEPES (pH 7.5), 0.002% Tween-20, 0.1% BSA, 100 mM NaCl, 2mM DTT. • 1.3.2 Coating: A 100 ng/mL Histone coating solution was prepared by using 1x PBS, 25 uL of the coating solution was transferred to a 384-well reaction plate, and the reaction plate was coated overnight at 4°C. • 1.3.3 Washing: After the coating was completed, the coating solution was discarded, and the reaction plate was washed with the PBST solution by means of transferring 50uL of the PBST solution to the 384-well reaction plate, letting it stand for 5 min, discarding the washing solution, refilling the reaction plate with the PBST solution, and repeating the washing process 3 times. Finally, the reaction plate was tapped dry and the next step of blocking was proceeded with. • 1.3.4 Blocking: 50 uL of the blocking solution was transferred to the 384-well reaction plate and set for 1 h. • 1.3.5 Washing: After the blocking was completed, the blocking solution was discarded, the reaction plate was washed 3 times with the PBST solution according to the method in Step 2, and the reaction plate was tapped dry. • 1.3.6 A 25/10× PARP5A solution was prepared, then 10 µL of the PARP5A solution was transferred to the 384-well reaction plate. For negative control wells, 10 µL of the reaction buffer solution instead was transferred, resulting in the final concentration of PARP5A of 10 nM. • 1.3.7 A 2,000x compound was prepared, 50 nL of the compound was transferred to with echo, 19.95 uL of the reaction buffer solution was added into the compound, mix well, and 5 uL of the mixed compound was transferred to the 384-well reaction plate. • 1.3.8 A 25/10x Biotin-NAD+ solution was prepared, 10uL of the Biotin-NAD+ solution was transferred to the 384-well reaction plate, resulting in a final Biotin-NAD+ concentration of 2uM, and incubated at room temperature for 60 min. • 1.3.9 Washing: After the reaction was completed, the reaction liquid was discarded. The reaction plate was washed 3 times with the PBST solution according to the method in Step 2, and the reaction plate was tapped dry. • 1.3.10 A Stre-HRP solution was prepared by means of diluting it with the blocking solution, 25uL of the Stre-HRP solution was transferred to the reaction plate, and incubated at room temperature for 1 h, resulting the final concentration of Stre-HRP of 0.1 µg/mL. • 1.3.11 Washing: The Stre-HRP solution was discarded, the reaction plate was washed 3 times with the PBST solution according to the method in Step 2, and the reaction plate was tapped dry. • 1.3.12 Color developing: Femto-ECL Substrate A, Femto-ECL Substrate B, and QuantaRed ADHP were mixed in a 50:50:1 ratio.

breast cancer MDA-MB-436 = tested on: breast cancer MDA-MB-436; design: species or system NOD/SCID mice; settings: mouse, in vivo
SUM14PT tumor cells = test: In-vivo pharmacodynamic study on subcutaneous xenograft tumor model of breast cancer SUM14PT; design: species or system nude mice; settings: Fig. 4
Procedure: Experimental procedure: In this study, a mice model was established by subcutaneously inoculating SUM14PT tumor cells. Eight groups were divided for the experiment, with 6 mice in each group. The negative control group (Control) received normal saline at 0.2 mL per mice per administration, given orally once per day; the carboplatin control group (Carboplatin, Car) received 20 mg/kg at 0.2 mL per mice per administration, administered via intraperitoneal injection once every 7 days.

T2 sequence (O95271 1001-1327): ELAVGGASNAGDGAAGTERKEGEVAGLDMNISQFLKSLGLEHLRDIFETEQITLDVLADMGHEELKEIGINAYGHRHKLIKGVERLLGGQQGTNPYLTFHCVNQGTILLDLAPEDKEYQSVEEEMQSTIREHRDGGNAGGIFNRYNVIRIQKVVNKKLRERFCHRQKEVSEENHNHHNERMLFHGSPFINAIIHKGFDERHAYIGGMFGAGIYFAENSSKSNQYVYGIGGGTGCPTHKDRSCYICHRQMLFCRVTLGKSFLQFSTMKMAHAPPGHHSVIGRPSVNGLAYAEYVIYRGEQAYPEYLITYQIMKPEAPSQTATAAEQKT
T1 sequence (Q9UGN5 whole entry): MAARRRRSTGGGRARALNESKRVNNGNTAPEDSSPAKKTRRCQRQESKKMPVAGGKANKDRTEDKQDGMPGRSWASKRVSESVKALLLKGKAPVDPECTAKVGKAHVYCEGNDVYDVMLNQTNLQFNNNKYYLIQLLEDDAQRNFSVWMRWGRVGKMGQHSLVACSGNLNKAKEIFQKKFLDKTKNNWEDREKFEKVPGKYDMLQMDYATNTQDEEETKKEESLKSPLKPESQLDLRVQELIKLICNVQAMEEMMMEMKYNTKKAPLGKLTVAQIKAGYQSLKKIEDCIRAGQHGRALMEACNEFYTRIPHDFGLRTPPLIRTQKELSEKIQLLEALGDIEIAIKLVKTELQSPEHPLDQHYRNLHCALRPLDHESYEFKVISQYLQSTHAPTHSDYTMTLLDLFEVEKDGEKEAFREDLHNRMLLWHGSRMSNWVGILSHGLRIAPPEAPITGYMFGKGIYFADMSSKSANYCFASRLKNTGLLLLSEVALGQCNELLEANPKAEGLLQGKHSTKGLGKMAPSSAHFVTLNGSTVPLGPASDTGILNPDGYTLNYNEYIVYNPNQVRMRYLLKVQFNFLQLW

[2H]C([2H])([2H])C([2H])([2H])c1cc2ncc(CN3CC=C(c4ccc(C(=O)NC)nc4)CC3)cc2[nH]c1=O [Compound 6, 1'-((7-(ethyl-d5)-6-oxo-5,6-dihydro-1,5-naphthyridin-3-yl)methyl)-N-methyl-1',2',3',6'-tetrahy dro-[3,4'-bipyridine]-6-carboxamide]
half-life (in vivo): 8.4 h | IC50 (PARP2): > 1000 nM | IC50 (PARP5A): > 1000 nM | anti-tumor efficacy in the model of large-volume tumors (breast cancer MDA-MB-436): complete regression of tumors | rate of tumor regression compared to the compounds 1 and 21 (breast cancer MDA-MB-436): faster rate of tumor regression | therapeutic efficacy in combination with carboplatin (SUM14PT tumor cells; 1 mg/kg orally once daily + carboplatin, versus Olaparib 100 mg/kg + carboplatin): better therapeutic efficacy than Olaparib | anti-tumor efficacy, monotherapy (SUM14PT tumor cells; 0.3 and 1 mg/kg orally once daily, versus Olaparib 100 mg/kg orally once daily): better anti-tumor efficacy compared to Olaparib
